Measured values: the supplement of paper PMC4862054

Legend:
CAL-120 [1] = settings: 72 h
Outline: (§1)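 Seeding of breast cancer cell lines (20 µl suspension) was done into 384-well plates pre-loaded with compound at 5 concentrations, 10-fold apart, covering a compound-specific 10,000-fold range. The plates were incubated for 72 h, read for CellTox Green fluorescence (485/520 nm), and then read for CellTiter-Glo luminescence after 10 min at room temperature. Every plate was normalised to 0.1 % DMSO and a positive kill control. Curve fitting gave the EC50, censored at the top concentration.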

MDA-MB-468 [2] = settings: 72 h
Outline: as §1

MDA-MB-453 = assay: drug sensitivity score (DSS), CellTiter-Blue viability (DSS (AUC-based score)); higher = stronger viability inhibition; extreme values may be limits of the assay; settings: incubation time: 72 h
Description: (§2)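 DSRT with the CellTiter-Blue (resazurin reduction) viability readout, fluorescence 560/590 nm, 72 h incubation. Plates were normalised to DMSO and benzethonium chloride controls. DSS is computed from the area under the fitted dose-response curve (5 or 9 concentrations).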

CAL-85-1 = assay: as above; settings: incubation time: 72 h
Description: as §2

HCC1143 = assay: as above; settings: incubation time: 72 h
Description: as §2

MDA-MB-231 = assay: as above; settings: incubation time: 72 h
Description: as §2

MFM-223 = assay: as above; settings: incubation time: 72 h
Description: as §2

BT-549 = assay: as above; settings: incubation time: 72 h
Description: as §2

MDA-MB-436 = assay: as above; settings: incubation time: 72 h
Description: as §2

Hs578T = assay: as above; settings: incubation time: 72 h
Description: as §2

HCC1599 = assay: as above; settings: incubation time: 72 h
Description: as §2

SK-BR-3 = assay: as above; settings: incubation time: 72 h
Description: as §2

BT-474 = assay: as above; settings: incubation time: 72 h
Description: as §2

CAL-120 [3] = assay: as above; settings: incubation time: 72 h
Description: as §2

HCC1937 = assay: as above; settings: incubation time: 72 h
Description: as §2

HDQ-P1 = assay: as above; settings: incubation time: 72 h
Description: as §2

DU-4475 = assay: as above; settings: incubation time: 72 h
Description: as §2

CAL-51 = assay: as above; settings: incubation time: 72 h
Description: as §2

CAL-148 = assay: as above; settings: incubation time: 72 h
Description: as §2

MDA-MB-468 [4] = assay: as above; settings: incubation time: 72 h
Description: as §2

Row | EC50, CellTiter-Glo (MDA-MB-468 [2]) | SMILES | EC50, CellTiter-Glo (CAL-120 [1]) | drug sensitivity score (MDA-MB-453) | drug sensitivity score (CAL-85-1) | drug sensitivity score (HCC1143) | drug sensitivity score (MDA-MB-231) | drug sensitivity score (MFM-223) | drug sensitivity score (BT-549) | drug sensitivity score (MDA-MB-436) | drug sensitivity score (Hs578T) | drug sensitivity score (HCC1599) | drug sensitivity score (SK-BR-3) | drug sensitivity score (BT-474) | drug sensitivity score (CAL-120 [3]) | drug sensitivity score (HCC1937) | drug sensitivity score (HDQ-P1) | drug sensitivity score (DU-4475) | drug sensitivity score (CAL-51) | drug sensitivity score (CAL-148) | drug sensitivity score (MDA-MB-468 [4])
1 | 1.54 nM | Cc1c2oc3c(C)ccc(C(=O)N[C@@H]4C(=O)N[C@H](C(C)C)C(=O)N5CCC[C@H]5C(=O)N(C)CC(=O)N(C)[C@@H](C(C)C)C(=O)O[C@@H]4C)c3nc-2c(C(=O)N[C@@H]2C(=O)N[C@H](C(C)C)C(=O)N3CCC[C@H]3C(=O)N(C)CC(=O)N(C)[C@@H](C(C)C)C(=O)O[C@@H]2C)c(N)c1=O [Dactinomycin] | 10.2 nM | 30.5 | 30.9 | 27.4 | 30.8 | 20.1 | 32.8 | 27.9 | 33.6 | 20.8 | 28.9 | 17.7 | 30.8 | 21.8 | 28.5 | 38.4 | 29.7 | 34.1 | 31.4
2 | 0.15 nM | CO[C@H]1C[C@@H]2CC[C@@H](C)[C@@](O)(O2)C(=O)C(=O)N2CCCC[C@H]2C(=O)O[C@H]([C@H](C)C[C@@H]2CC[C@@H](OC(=O)C(C)(CO)CO)[C@H](OC)C2)CC(=O)[C@H](C)/C=C(\C)[C@@H](O)[C@@H](OC)C(=O)[C@H](C)C[C@H](C)/C=C/C=C/C=C/1C [Temsirolimus] | 1.08 nM | 31.8 | 14.7 | 11.1 | 0 | 20.8 | 18.1 | 5.67 | 17.3 | 0 | 17.9 | 12.1 | 16.4 | 0 | 7.62 | 15.7 | 22.2 | 25.6 | 13.1
3 | 158 nM | CN(C)C/C=C/C(=O)Nc1cc2c(Nc3ccc(F)c(Cl)c3)ncnc2cc1O[C@H]1CCOC1 [Afatinib] | – | 21.3 | 13.1 | 0 | 7.75 | 3.47 | 5.88 | 3.02 | 4.14 | 0 | 31.5 | 23.5 | 4.96 | 7.41 | 15.3 | 0 | 1.9 | 5.66 | 13
4 | 26.9 nM | COc1cc(Nc2ncc3c(n2)-c2ccc(Cl)cc2C(c2c(F)cccc2OC)=NC3)ccc1C(=O)O [Alisertib] | 338 nM | – | – | – | – | – | – | – | – | – | – | – | – | – | – | – | – | – | –
5 | 532 nM | C=CCNC1=C2C[C@@H](C)C[C@H](OC)[C@H](O)[C@@H](C)/C=C(\C)[C@H](OC(N)=O)[C@@H](OC)/C=C\C=C(/C)C(=O)NC(=CC1=O)C2=O [Tanespimycin] | 269 nM | 32.6 | 15.7 | 24.8 | 9.87 | 25.8 | 24.3 | 25.2 | 20.5 | 16.3 | 29.2 | 21.3 | 14.8 | 18.2 | 19.3 | 28.2 | 16.9 | 22.4 | 0
6 | 4990 nM | COc1cccc2cc(-c3nc([C@H]4CC[C@H](C(=O)O)CC4)n4ncnc(N)c34)[nH]c12 [OSI-027] | 3850 nM | 13.7 | 9.36 | 7.21 | 6.73 | 15.2 | 6.62 | 13.1 | 9.33 | 5.99 | 21.7 | 9.76 | 8.32 | 8.55 | 14.9 | 6.08 | 9.33 | 9.33 | 6.33
7 | 139 nM | COc1cccc2c1C(=O)c1c(O)c3c(c(O)c1C2=O)C[C@@](O)(C(=O)CO)C[C@@H]3O[C@H]1C[C@H](N)[C@H](O)[C@H](C)O1 [Doxorubicin] | 872 nM | 4.31 | 5.11 | 8.86 | 9.57 | 2.94 | 7.93 | 8.25 | 9.11 | 3.59 | 13.3 | 4.12 | 11.3 | 11.8 | 7 | 12.9 | 8.73 | 14.2 | 9.27
8 | 261 nM | CN1CC[C@H](c2c(O)cc(O)c3c(=O)cc(-c4ccccc4Cl)oc23)[C@H](O)C1 [Alvocidib] | 167 nM | 19.6 | 20.8 | 17.9 | 19.6 | 19.2 | 17.2 | 15.6 | 22.8 | 17.4 | 23.9 | 14.5 | 17.8 | 19.1 | 19 | 22.4 | 19.9 | 20.3 | 17.6
9 | 618 nM | Nc1ccn([C@@H]2O[C@H](CO)[C@@H](O)[C@@H]2O)c(=O)n1 [Cytarabine] | > 10000 nM | 6.62 | 3.04 | 6.95 | 7.18 | 0 | 7.65 | 4.91 | 11.6 | 3 | 8.27 | 0 | 7.69 | 13.9 | 0 | 12.3 | 15.4 | 19.2 | 6.23
10 | > 10000 nM | N#CC[C@H](C1CCCC1)n1cc(-c2ncnc3[nH]ccc23)cn1 [Ruxolitinib] | 1670 nM | 0 | 0 | 0 | 0 | 0 | 0 | 0 | 0 | 0 | 0 | 0 | 0 | 1.92 | 0 | 0 | 0 | 0 | 0
11 | – | S=c1[nH]cnc2nc[nH]c12 [Mercaptopurine] | 4710 nM | 0 | 0 | 0 | 0 | 0 | 0 | 0 | 0 | 0 | 0 | 0 | 4.1 | 4.84 | 0 | 0 | 0.87 | 0 | 5.53
12 | > 1000 nM | Nc1nc(Cl)nc2c1ncn2[C@H]1C[C@H](O)[C@@H](CO)O1 [Cladribine] | 445 nM | 0 | 0 | 3.82 | 7.23 | 0 | 3.51 | 1.7 | 0 | 0 | 1.21 | 0 | 3.94 | 8.9 | 0 | 1.23 | 0.39 | 0.812 | 0
13 | 2.95 nM | CC[C@]1(O)C[C@@H]2CN(CCc3c([nH]c4ccccc34)[C@@](C(=O)OC)(c3cc4c(cc3OC)N(C)[C@H]3[C@@](O)(C(=O)OC)[C@H](OC(C)=O)[C@]5(CC)C=CCN6CC[C@]43[C@@H]65)C2)C1 [Vinblastine] | 2.04 nM | 20 | 17.8 | 19.4 | 27.7 | 13.1 | 25.2 | 18.7 | 30.7 | 7.99 | 35.2 | 21.8 | 32 | 32 | 18.2 | 13.7 | 16.1 | 18.7 | 21.6
14 | – | CCN1CCN(c2ccc(Nc3cc(N(C)C(=O)Nc4c(Cl)c(OC)cc(OC)c4Cl)ncn3)cc2)CC1 [NVP-BGJ398] | 252 nM | – | – | – | – | – | – | – | – | – | – | – | – | – | – | – | – | – | –
15 | – | Cc1ccc(F)c(NC(=O)Nc2ccc(-c3cccc4[nH]nc(N)c34)cc2)c1 [Linifanib] | – | 0 | 0 | 0 | 0 | 0 | 0 | 0 | 0 | 0 | 0 | 0 | 0 | 0 | 0 | 0 | 0 | 0 | 0
